According to patent US11999727B2 (Tango Therapeutics, Inc., priority 2020, dated 2024):

Experiments:
PRMT5 [1] = biological target: T1, PRMT5 (Homo sapiens, UniProt O14744); assay: PRMT5 biochemical IC50 assay with MTA as cofactor; conditions: PRMT5, MTA as cofactor; read-out: MTA IC50
T1 construct: purchased Viva (custom protein)

[2] = system: HAP1 MTAP-deleted cell line; assay: SDMA in-cell western assay, HAP1 MTAP-deleted; type: cell-based; conditions: for IC50: Homo sapiens, HAP1, SDMA in-cell western, HAP1 MTAP-deleted, read-out: HAP1 MTAP deleted IC50; for MTAP intact/deleted ratio: IC50 ratio HAP1 MTAP-intact / HAP1 MTAP-deleted, SDMA in-cell western
Outline: (§1)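 MTAP-null vs endogenous-MTAP HAP1 isogenic cells; in-cell western SDMA readout; IC50 per line.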

PRMT5 [3] = biological target: T1, PRMT5; assay: PRMT5 biochemical IC50 assay with no cofactor; conditions: PRMT5, no cofactor; read-out: No Cofactor/rel IC50
Excerpt: Table 1 indicates IC50 values (μM) against PRMT5 for exemplary compounds in the presence of SAM as cofactor, with no cofactor, and with MTA as cofactor, respectively (columns 4-6). […] Ki values can be calculated from the IC50 values as described in the Examples section. As detailed in the Examples section, for the assay performed in the presence of SAM, IC50=Ki×1.5 (Ki=IC50/1.5).

[4] = system: HAP1 MTAP-deleted cell line; assay: Viability assay, MTAP-deleted cell line; type: cell-based; conditions: Homo sapiens, HAP1, viability assay, HAP1 MTAP-deleted; read-out: HAP1 MTAP deleted viability
Excerpt: Table 1 additionally indicates IC50 values in a viability assay for the MTAP-deleted cell line (column 10), indicating the effect of treatment with compound on cell survival.

[5] = system: HAP1 MTAP-intact cell line; assay: SDMA in-cell western assay, HAP1 MTAP-intact; type: cell-based; conditions: Homo sapiens, HAP1, SDMA in-cell western, HAP1 MTAP-intact; read-out: MTAP HAP1 intact IC50
Outline: as §1

PRMT5 [6] = biological target: T1, PRMT5; assay: PRMT5 biochemical IC50 assay with SAM as cofactor; conditions: PRMT5, SAM as cofactor; read-out: SAM IC50

T1 sequence (O14744 whole entry): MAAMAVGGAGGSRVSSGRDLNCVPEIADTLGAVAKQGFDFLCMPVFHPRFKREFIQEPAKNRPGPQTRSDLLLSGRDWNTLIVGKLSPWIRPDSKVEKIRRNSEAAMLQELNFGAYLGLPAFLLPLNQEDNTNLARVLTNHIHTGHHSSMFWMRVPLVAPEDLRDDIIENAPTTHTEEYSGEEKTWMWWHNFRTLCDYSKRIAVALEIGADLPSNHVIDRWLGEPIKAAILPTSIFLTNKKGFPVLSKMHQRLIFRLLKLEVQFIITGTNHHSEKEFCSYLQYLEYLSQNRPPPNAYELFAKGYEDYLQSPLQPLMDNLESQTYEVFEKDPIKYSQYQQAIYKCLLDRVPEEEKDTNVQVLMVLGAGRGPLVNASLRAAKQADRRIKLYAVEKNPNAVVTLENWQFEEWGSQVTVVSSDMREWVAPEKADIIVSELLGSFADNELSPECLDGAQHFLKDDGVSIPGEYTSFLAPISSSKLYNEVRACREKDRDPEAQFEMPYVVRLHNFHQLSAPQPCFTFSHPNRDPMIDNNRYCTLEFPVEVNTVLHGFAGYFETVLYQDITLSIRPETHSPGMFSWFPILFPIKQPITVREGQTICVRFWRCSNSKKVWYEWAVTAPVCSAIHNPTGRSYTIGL
T1 sequence (Q9BQA1 whole entry partner): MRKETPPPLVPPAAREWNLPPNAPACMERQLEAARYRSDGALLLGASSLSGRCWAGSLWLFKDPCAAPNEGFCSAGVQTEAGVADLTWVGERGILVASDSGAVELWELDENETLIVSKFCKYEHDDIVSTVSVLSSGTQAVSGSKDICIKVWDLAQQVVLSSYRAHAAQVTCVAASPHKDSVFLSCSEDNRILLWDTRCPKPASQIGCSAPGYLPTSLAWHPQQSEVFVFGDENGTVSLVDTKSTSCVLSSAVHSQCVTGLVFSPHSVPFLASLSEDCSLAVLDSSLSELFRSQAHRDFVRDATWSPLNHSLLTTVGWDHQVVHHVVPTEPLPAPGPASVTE

SMILES | IC50 (PRMT5 [1]) [nM] | IC50 [2] [nM] | IC50 (PRMT5 [3]) [nM] | IC50 [5] [nM] | IC50 (PRMT5 [6]) [nM] | MTAP intact/deleted ratio [2] | IC50 [4] [nM]
CCc1cc(NC(=O)C(=O)N2C[C@H](C)CC[C@H]2c2ccc3[nH]cnc3c2)cnc1N (single isomer, unassigned) [Compound 771] | > 500 | > 1000 | > 500 | > 1000 | > 500 | C (an IC50 ratio of less than 3 fold) | > 10000
C[C@H]1CC[C@H](c2ccc(-c3nccs3)cc2)N(C(=O)C(=O)Nc2cncc(C(N)=O)c2)C1 (single isomer, unassigned) [Compound 772] | > 500 | > 1000 | > 500 | > 1000 | > 500 | B (an IC50 ratio greater than or equal to 3 fold but lower than 10 fold) | > 10000
Cc1cc(NC(=O)C(=O)N2C[C@H](C)C(F)(F)C[C@H]2c2ccc(F)cc2)cnc1N (single isomer, unassigned) [Compound 777] | > 500 | > 1000 | > 500 | > 1000 | > 500 | B (an IC50 ratio greater than or equal to 3 fold but lower than 10 fold) | > 10000
C[C@H]1CC[C@H](c2ccc3[nH]ncc3n2)N(C(=O)C(=O)Nc2cncc(C(N)=O)c2)C1 (single isomer, unassigned) [Compound 778] | < 50 | < 100 | < 50 | > 1000 | 50 to 500 | A (an IC50 ratio greater than or equal to 10 fold) | 1000 to 10000
Cc1cc(NC(=O)C(=O)N2C[C@@H](C)CC[C@@H]2c2ccc3[nH]ncc3n2)cnc1N (single isomer, unassigned) [Compound 780] | > 500 | 100 to 1000 | > 500 | > 1000 | > 500 | A (an IC50 ratio greater than or equal to 10 fold) | > 10000
Cc1cc(NC(=O)C(=O)N2C[C@H](C)CC[C@H]2c2ccn(-c3cc[nH]n3)n2)cnc1N (single isomer, unassigned) [Compound 782] | < 50 | < 100 | < 50 | 100 to 1000 | < 50 | A (an IC50 ratio greater than or equal to 10 fold) | < 1000
Cc1cc(NC(=O)C(=O)N2C[C@@H](C)C(F)(F)C[C@@H]2c2ccc(F)cc2)cnc1N (single isomer, unassigned) [Compound 786] | < 50 | < 100 | < 50 | 100 to 1000 | 50 to 500 | A (an IC50 ratio greater than or equal to 10 fold) | < 1000

Second part, led by results:

IC50 (PRMT5 [1]) [nM] | IC50 [2] [nM] | IC50 (PRMT5 [3]) [nM] | IC50 [5] [nM] | IC50 (PRMT5 [6]) [nM] | SMILES | MTAP intact/deleted ratio [2] | IC50 [4] [nM]
< 50 | < 100 | 50 to 500 | > 1000 | 50 to 500 | C[C@@H]1CC[C@@H](c2ccc(-c3nccs3)cc2)N(C(=O)C(=O)Nc2cncc(C(N)=O)c2)C1 (single isomer, unassigned) [Compound 783] | A (an IC50 ratio greater than or equal to 10 fold) | 1000 to 10000
< 50 | < 100 | < 50 | > 1000 | 50 to 500 | CCc1cc(NC(=O)C(=O)N2C[C@@H](C)CC[C@@H]2c2ccc(C)nc2)cnc1N (single isomer, unassigned) [Compound 784] | A (an IC50 ratio greater than or equal to 10 fold) | < 1000
< 50 | < 100 | < 50 | 100 to 1000 | 50 to 500 | Cc1cc(NC(=O)C(=O)N2C[C@H](C)CC[C@H]2c2cccc3[nH]ncc23)cnc1N (single isomer, unassigned) [Compound 785] | A (an IC50 ratio greater than or equal to 10 fold) | < 1000
